In US7074742B2, “Pyridinyl amides and imides for use as fungicides” (E. I. du Pont de Nemours and Company, priority 2000, dated 2006):
Marks after values point to notes of the source that are not given here.

Legend:
Type in all cases: in vivo
[1] = test system: Phytophthora infestans; settings: curative spray; 100 ppm on potato seedlings
[2] = test system: Plasmopara viticola; assay: TEST E: preventive spray on grape seedlings, grape downy mildew, disease rating; settings: 100 = 100% disease control, 0 = no control, concentration not marked in table
[3] = test system: Pyricularia oryzae; settings: preventive spray on rice seedlings; 100 = 100% disease control, 0 = no control; concentration not marked in table
[4] = test system: Phytophthora infestans; settings: preventive spray on tomato seedlings; 100 = 100% disease control, 0 = no control; concentration not marked in table
[5] = test system: Plasmopara viticola; assay: TEST G: curative spray on inoculated grape seedlings, grape downy mildew, disease rating; settings: for curative utility: curative (post-infection) use, especially for grape downy mildew, statement in words; for Test G disease control rating (grape downy mildew, curative): curative spray on inoculated grape seedlings
[6] = test system: Erysiphe graminis f. sp. tritici; assay: TEST A: preventive spray on wheat seedlings, wheat powdery mildew, disease rating; settings: 100 = 100% disease control, 0 = no control relative to controls, concentration not marked in table
[7] = test system: Puccinia recondita; assay: TEST B: preventive spray on wheat seedlings, wheat leaf rust, disease rating; settings: 100 = 100% disease control, 0 = no control, concentration not marked in table
[8] = concentration not marked in table

Row | SMILES | Test F disease control rating (late blight, curative) [1] | Test E disease control rating (grape downy mildew) [2] | Test C disease control rating (rice blast) [3] | Test D disease control rating (potato and tomato late blight) [4] | curative utility [5] | Test G disease control rating (grape downy mildew, curative) ([5]; 100 ppm) | Test A disease control rating (wheat powdery mildew) [6] | Test B disease control rating (wheat leaf rust) [7] | Test G disease control rating (grape downy mildew, curative) [5, 8] | Test G disease control rating (grape downy mildew, curative) ([5]; 20 ppm)
1 | O=C(NCc1ncc(C(F)(F)F)cc1Cl)c1c(Cl)ccnc1Cl [Compound 28] | 97# % | 100% | 0% | 100% | significant curative utility | 37* % |  |  |  | 
2 | CC(NC(=O)c1c(Cl)ccnc1Cl)c1ncc(Br)cc1Cl (racemic) [Compound 37] |  | 100% | 0% | 100% | significant curative utility |  | 0% | 19% | 100% | 
3 | CC(NC(=O)c1c(Cl)ccnc1Cl)c1ncc(Cl)cc1Cl (racemic) [Compound 36] |  | 100% | 0% | 100% | significant curative utility |  | 0% | 38% | 100% | 
4 | O=C(NCc1ncc(C(F)(F)F)cc1Cl)c1c(Cl)cncc1Cl [Compound 35] |  | 100% |  | 100% | significant curative utility | 100* % | 0% | 30% |  | 
5 | Cc1cnc(Cl)c(C(=O)NCc2ncc(C(F)(F)F)cc2Cl)c1Cl [Compound 29] |  | 100% | 0% | 100% | significant curative utility | 100* % |  |  |  | 
6 | C[C@@H](NC(=O)c1c(Cl)ccnc1Cl)c1ncc(C(F)(F)F)cc1Cl [Compound 31, 2,4-dichloro-N-[(1R)-1-[3-chloro-5-(trifluoromethyl)-2-pyridinyl]ethyl]-3-pyridinecarboxamide] |  | 100% | 0% | 100% | significant curative utility |  |  |  |  | 100** %
7 | O=C(NCc1ncc(C(F)(F)F)cc1Cl)c1cccnc1Cl [Compound 5] |  | 98% |  |  | significant curative utility |  |  | 19% | 99% | 
8 | Cc1cc(Cl)c(C(=O)NCc2ncc(C(F)(F)F)cc2Cl)c(Cl)n1 [Compound 8, 2,4-Dichloro-N-[[3-chloro-5-(trifluoromethyl)-2-pyridinyl]methyl]-6-methyl-3-pyridinecarboxamide] |  | 100% |  | 100% | significant curative utility |  | 0% | 8% | 96% | 
9 | CC(NC(=O)c1c(Cl)ccnc1Cl)c1ncc(C(F)(F)F)cc1Cl (racemic) [Compound 30] |  | 100% | 0% | 100% | significant curative utility | 100* % |  |  |  | 
